IC50 data for 4 compounds are collected here from patent US10696675B2, “Imidazopyridopyrimidine derivative compound and use thereof” (HANMI PHARMACEUTICAL CO., LTD., priority 2016, dated 2020).

One assay relates to HUH7 cells. In words: Proliferation inhibitory effect for HUH7 cells (SRB assay). In kind it is cell-based. As to conditions: Homo sapiens, Huh-7, 72 hours, GI50, read-out: IC50 HUH7 Cell Line. The protocol:
Test Example 2: Measuring Inhibitory Effect of FGFR Inhibitor Using Cell Line
The test was carried out for identifying a proliferation inhibitory effect of the compound of the present invention for HUH7 cells. HUH7 cell lines were counted and 5.0×10^3 cells were inoculated per well in a 96 well plate. After the innoculation, the cells were cultured for 24 hours in a 37 □ and 5% carbon dioxide (CO2) incubator. On the next day, the synthesized compounds were each diluted and prepared. The diluted compounds were introduced to the cell lines inoculated the previous day by concentrations, and reacted for 72 hours in a 37 □ and 5% carbon dioxide (CO2) incubator. However, to a positive control to which the compound was not added, 0.1% dimethyl sulfoxide (DMSO) diluted with a medium was introduced. To a negative control plate, a trichloroacetic acid (TCA) solution was introduced, and fixed at 4 □. After reacting for 72 hours, the medium including the compound was removed, a TCA solution was added thereto, and the cells were fixed for 30 minutes to 60 minutes at 4 □. The TCA solution was discarded, the plate was washed off with distilled water and then dried in the air. A 0.4% sulforhodamin B (SRB) solution was added to the plate and dyed for 10 minutes at room temperature. The plate was washed off with tap water including a 1% acetic acid solution, and then dried in the air. A 10 mM Trizma base solution was added to dissolve the solid SRB. Using a microplate reader, optical density (O.D. value) was measured at 540 nm. A GI50 value of each of the compounds was calculated using GraphPad Prism V6.0 Software.

For the next assay, the target named is FGFR1 (Homo sapiens, UniProt P11362). Description: Activity inhibition for FGFR1 kinase (Z′-LYTE biochemical assay, Invitrogen SelectScreen). Conditions: ATP concentration based on Km. The protocol:
(§1) For the synthesized compounds, inhibitory activity for FGFR1, 2, 3, 4 kinase was measured. Activity measurement was carried out by requesting to SelectScreen® Biochemical Kinase Profiling Service of Invitrogen. A Z′-LYTE® biochemical assay method was used, and the ATP concentration was set based on the Km value.

The next assay addresses FGFR4 (Homo sapiens, UniProt P22455). Description: Activity inhibition for FGFR4 kinase (Z′-LYTE biochemical assay, Invitrogen SelectScreen). As to conditions: ATP concentration based on Km. The protocol: as §1

FGFR4, sequence (P22455 22-802): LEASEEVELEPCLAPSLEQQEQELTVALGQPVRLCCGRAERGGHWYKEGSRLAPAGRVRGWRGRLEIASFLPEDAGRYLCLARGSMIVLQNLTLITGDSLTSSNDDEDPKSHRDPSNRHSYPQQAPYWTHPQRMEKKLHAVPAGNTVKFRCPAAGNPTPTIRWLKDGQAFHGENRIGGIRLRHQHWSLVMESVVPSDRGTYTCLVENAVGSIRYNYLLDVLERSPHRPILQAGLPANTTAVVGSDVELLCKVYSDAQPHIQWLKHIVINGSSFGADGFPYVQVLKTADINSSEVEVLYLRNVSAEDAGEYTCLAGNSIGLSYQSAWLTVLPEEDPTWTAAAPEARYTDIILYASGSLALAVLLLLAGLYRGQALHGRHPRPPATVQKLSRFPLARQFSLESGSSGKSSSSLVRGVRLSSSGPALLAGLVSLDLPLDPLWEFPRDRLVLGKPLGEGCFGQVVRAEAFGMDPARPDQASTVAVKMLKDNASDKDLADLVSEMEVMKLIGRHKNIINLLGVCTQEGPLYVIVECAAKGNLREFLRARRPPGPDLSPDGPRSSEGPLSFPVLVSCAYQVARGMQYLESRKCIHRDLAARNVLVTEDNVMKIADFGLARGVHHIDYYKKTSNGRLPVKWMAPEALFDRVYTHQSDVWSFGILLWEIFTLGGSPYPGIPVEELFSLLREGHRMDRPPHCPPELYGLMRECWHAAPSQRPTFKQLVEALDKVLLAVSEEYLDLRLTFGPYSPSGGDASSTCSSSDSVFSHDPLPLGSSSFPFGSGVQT
FGFR1, sequence (P11362 22-822): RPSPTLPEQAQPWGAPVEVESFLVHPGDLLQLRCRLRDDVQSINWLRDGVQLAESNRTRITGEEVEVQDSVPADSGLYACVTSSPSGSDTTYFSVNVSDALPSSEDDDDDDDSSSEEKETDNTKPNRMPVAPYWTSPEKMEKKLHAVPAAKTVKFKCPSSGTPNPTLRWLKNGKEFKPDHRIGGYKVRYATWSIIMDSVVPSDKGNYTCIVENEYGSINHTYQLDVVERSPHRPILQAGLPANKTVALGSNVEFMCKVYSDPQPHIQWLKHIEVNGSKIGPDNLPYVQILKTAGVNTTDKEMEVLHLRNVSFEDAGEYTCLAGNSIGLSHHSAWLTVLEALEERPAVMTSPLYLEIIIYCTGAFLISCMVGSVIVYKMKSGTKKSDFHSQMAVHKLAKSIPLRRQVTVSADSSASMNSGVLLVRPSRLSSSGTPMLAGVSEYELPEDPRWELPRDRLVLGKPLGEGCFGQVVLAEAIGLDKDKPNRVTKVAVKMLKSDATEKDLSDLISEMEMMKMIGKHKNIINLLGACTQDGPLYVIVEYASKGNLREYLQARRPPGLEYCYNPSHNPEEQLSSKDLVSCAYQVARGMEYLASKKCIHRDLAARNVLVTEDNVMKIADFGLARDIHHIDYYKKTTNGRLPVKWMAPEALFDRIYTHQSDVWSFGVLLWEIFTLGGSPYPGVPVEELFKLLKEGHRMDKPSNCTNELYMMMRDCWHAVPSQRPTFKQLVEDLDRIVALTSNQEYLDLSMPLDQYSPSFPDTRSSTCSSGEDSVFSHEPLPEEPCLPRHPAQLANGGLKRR

For `C=CC(=O)Nc1cc(N2CCS(=O)(=O)CC2)ccc1Nc1ncc2cc(-c3c(Cl)c(OC)cc(OC)c3Cl)c3nccn3c2n1` [compound 36], the IC50 with HUH7 cells, against FGFR1 and on FGFR4 was less than 50 nM each time.

Take `C=CC(=O)Nc1cc(N2CCOCC2)cc(C)c1Nc1ncc2cc(-c3c(Cl)c(OC)cc(OC)c3Cl)c3nccn3c2n1` [compound 63]: the figures for the IC50 with HUH7 cells, on FGFR1 and on FGFR4 were 50 to 500 nM, 50 to 500 nM and less than 50 nM, respectively.

For the compound `C=CC(=O)Nc1cc(N2CCOCC2)c(C)cc1Nc1ncc2cc(-c3c(Cl)c(OC)cc(OC)c3Cl)c3nccn3c2n1` [compound 61], the IC50 with HUH7 cells, against FGFR1 and against FGFR4 was less than 50 nM each time.

For the compound `C=CC(=O)Nc1cccc(F)c1Nc1ncc2cc(-c3c(Cl)c(OC)cc(OC)c3Cl)c3nccn3c2n1` [compound 10], the results for the IC50 in the assay on HUH7 cells, on FGFR1 and against FGFR4 were less than 50 nM, 50 to 500 nM and less than 50 nM, respectively.
